Data reported in US12565501B2, “Muscarinic acetylcholine M1 receptor antagonists” (Contineum Therapeutics, Inc., priority 2019, dated 2026).

Molecular target: T1, human M1 receptor (Homo sapiens, UniProt P11229)
T1 sequence (P11229 1-460): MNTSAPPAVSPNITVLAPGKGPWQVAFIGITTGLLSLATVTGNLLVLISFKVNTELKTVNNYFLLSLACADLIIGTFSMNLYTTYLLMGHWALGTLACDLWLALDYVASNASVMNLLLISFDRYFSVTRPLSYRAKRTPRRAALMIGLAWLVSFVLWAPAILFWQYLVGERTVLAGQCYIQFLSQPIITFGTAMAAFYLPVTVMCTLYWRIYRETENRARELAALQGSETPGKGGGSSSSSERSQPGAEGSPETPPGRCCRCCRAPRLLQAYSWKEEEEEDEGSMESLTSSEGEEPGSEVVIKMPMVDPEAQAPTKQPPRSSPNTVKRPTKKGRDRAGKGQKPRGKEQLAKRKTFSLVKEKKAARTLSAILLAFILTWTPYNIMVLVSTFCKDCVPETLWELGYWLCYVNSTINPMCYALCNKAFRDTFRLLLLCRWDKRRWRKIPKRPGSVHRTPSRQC
Test: In vitro functional assay of muscarinic acetylcholine receptor activity (aequorin calcium flux, reversal of EC80 acetylcholine response)
Format: cell-based
Conditions: CHO-K1 cells stably expressing human M1 receptor with aequorin; acetylcholine at EC80; calcium flux (luminescence); read-out: M1 IC50
Method: CHO-K1 cells stably expressing human M1 receptor with aequorin (Perkin Elmer) were grown in F12 media (Gibco) containing 10% FBS (ATCC), 0.4 mg/mL geneticin (Sigma-Aldrich) and 0.25 mg/mL Zeocin (Invitrogen). Cells were grown as per the manufacturer's protocol. For compound testing, cells were grown to confluency and detached gently with Accutase (Sigma-Aldrich) followed by centrifugation for 5 min at 150× g. Cells were then re-suspended in assay buffer (i.e. DMEM/F-12 HEPES without phenol red (Invitrogen) with 0.1% BSA (Sigma-Aldrich)) at a density of 5×10^6 cells/ml. Under sterile conditions, 5 μM coelenterazine (Invitrogen) was added to the cells, mixed, then incubated at room temperature protected from light, with gentle agitation, for 4 h.
Primary compound plates were prepared in 100% DMSO in opaque 96-well plates (VWR) and serially diluted in half log increments. Secondary compound plates were prepared at 3× concentration in assay buffer. Compounds were added to white, clear bottom tissue culture treated 96-well plates (Fisher Scientific). Coelenterazine-loaded cells were then added at 5×10^5 cells/well.
Compounds and cells were incubated at room temperature for 30 min in the dark. Acetylcholine at the EC80 concentration was added and calcium flux measured using a FlexStation 3 (Molecular Devices). Sigmoidal dose-response curves were generated by measuring luminescence over 40 sec and calculating the area under the curve. Dose response curves and IC50 values were generated using Prism (GraphPad). Compounds were tested at a final concentration range of 100 μM to […] in 0.1% DMSO.

Which IC50 does the source give for `CC(SCCC(=O)N1CC2CCC(C1)N2c1ccc(C#N)cn1)c1ccccc1` (racemic) [Example 134, 6-(3-(3-((1-phenylethyl)thio)propanoyl)-3,8-diazabicyclo[3.2.1]octan-8-yl)nicotinonitrile] here?
Its IC50 is 100 to 1000 nM.

Which IC50 does the source give for `CC(SCCC(=O)N1CC2CCC(C1)N2c1ccc(C#N)cn1)c1ccc(F)cc1` (racemic) [Example 135, 6-((3-((1-(4-fluorophenyl)ethyl)thio)propanoyl)-3,8-diazabicyclo[3.2.1]octan-8-yl)nicotinonitrile] here?
Its IC50 is 1000 to 10000 nM.

Which IC50 does the source give for `CC(SCCC(=O)N1CC2CCC(C1)N2c1ccc(C#N)cn1)c1ccccc1Br` (racemic) [Example 136, 6-((3-((1-(2-bromophenyl)ethyl)thio)propanoyl)-3,8-diazabicyclo[3.2.1]octan-8-yl)nicotinonitrile] here?
Its IC50 is 100 to 1000 nM.

How did the IC50 turn out when `CC(c1ccc(F)c(F)c1)N1CC(C(=O)N2CC3CCC(C2)N3c2ccc(C#N)cn2)C1` (racemic) [Example 137, 6-(3-(1-(1-(3,4-difluorophenyl)ethyl)azetidine-3-carbonyl)-3,8-diazabicyclo[3.2.1]octan-8-yl)nicotinonitrile] was run?
The IC50 was 100 to 1000 nM.

For `COc1cc(C(F)(F)C2CC2C(=O)N2CC3CCC(C2)N3c2ccc(C#N)cn2)ccn1` (racemic) [Example 166, 6-(3-(2-(difluoro(2-methoxypyridin-4-yl)methyl)cyclopropane-1-carbonyl)-3,8-diazabicyclo[3.2.1]octan-8-yl)nicotinonitrile], which IC50 is on record?
Its IC50 is 1000 to 10000 nM.

Which IC50 does the source give for `CC(c1ccc(F)cc1)[S+]([O-])CC(=O)N1CC2CCC(C1)N2c1ccc(C#N)cn1` (racemic) [Example 167, 6-(3-(2-((1-(4-fluorophenyl)ethyl)sulfinyl)acetyl)-3,8-diazabicyclo[3.2.1]octan-8-yl)nicotinonitrile] here?
Its IC50 is 100 to 1000 nM.

For `CC(c1ccccc1)[S+]([O-])CC(=O)N1CC2CCC(C1)N2c1ccc(C#N)cn1` (racemic) [Example 168, 6-(3-(2-((1-phenylethyl)sulfinyl)acetyl)-3,8-diazabicyclo[3.2.1]octan-8-yl)nicotinonitrile], which IC50 is on record?
The IC50 was 1000 to 10000 nM.

How did the IC50 turn out when `CC(c1ccccc1)[S+]([O-])CCC(=O)N1CC2CCC(C1)N2c1ccc(C#N)cn1` (racemic) [Example 169, 6-(3-(3-((1-phenylethyl)sulfinyl)propanoyl)-3,8-diazabicyclo[3.2.1]octan-8-yl)nicotinonitrile] was run?
Its IC50 is 1000 to 10000 nM.

Which IC50 does the source give for `CC(c1ccc(F)cc1)[S+]([O-])CCC(=O)N1CC2CCC(C1)N2c1ccc(C#N)cn1` (racemic) [Example 170, 6-(3-(3-((1-(4-fluorophenyl)ethyl)sulfinyl)propanoyl)-3,8-diazabicyclo[3.2.1]octan-8-yl) nicotinonitrile] here?
Its IC50 is > 1000 nM.

How did the IC50 turn out when `CC(c1ccccc1Br)[S+]([O-])CCC(=O)N1CC2CCC(C1)N2c1ccc(C#N)cn1` (racemic) [Example 171, 6-(3-(3-((1-(2-bromophenyl)ethyl)sulflnyl)propanoyl)-3,8-diazabicyclo[3.2.1]octan-8-yl) nicotinonitrile] was run?
The IC50 was > 1000 nM.

Which IC50 does the source give for `CC(c1ccccc1)S(=O)(=O)CC(=O)N1CC2CCC(C1)N2c1ccc(C#N)cn1` (racemic) [Example 172, 6-(3-(2-((1-phenylethyl)sulfonyl)acetyl)-3,8-diazabicyclo[3.2.1]octan-8-yl)nicotinonitrile] here?
The IC50 was > 1000 nM.

For `CC(c1ccc(F)cc1)S(=O)(=O)CC(=O)N1CC2CCC(C1)N2c1ccc(C#N)cn1` (racemic) [Example 173, 6-(3-(2-((1-(4-fluorophenyl)ethyl)sulfonyl)acetyl)-3,8-diazabicyclo[3.2.1]octan-8-yl)nicotinonitrile], which IC50 is on record?
The IC50 was 1000 to 10000 nM.

With `CC(c1ccccc1)S(=O)(=O)CCC(=O)N1CC2CCC(C1)N2c1ccc(C#N)cn1` (racemic) [Example 174, 6-(3-(3-((1-phenylethyl)sulfonyl)propanoyl)-3,8-diazabicyclo[3.2.1]octan-8-yl)nicotinonitrile] as the molecule, how does the IC50 read?
The IC50 was > 1000 nM.

For `CC(c1ccc(F)cc1)S(=O)(=O)CCC(=O)N1CC2CCC(C1)N2c1ccc(C#N)cn1` (racemic) [Example 175, 6-(3-(3-((1-(4-fluorophenyl)ethyl)sulfonyl)propanoyl)-3,8-diazabicyclo[3.2.1]octan-8-yl) nicotinonitrile], which IC50 is on record?
Its IC50 is > 1000 nM.

Which IC50 does the source give for `CC(c1ccccc1Br)S(=O)(=O)CCC(=O)N1CC2CCC(C1)N2c1ccc(C#N)cn1` (racemic) [Example 176, 6-(3-(3-((1-(2-bromophenyl)ethyl)sulfonyl)propanoyl)-3,8-diazabicyclo[3.2.1]octan-8-yl) nicotinonitrile] here?
The IC50 was 1000 to 10000 nM.

For `N#Cc1ccc(N2C3CCC2CN(C(=O)COC2CCc4ccc(F)cc42)C3)nc1` (racemic) [Example 183, 6-(3-(2-((6-fluoro-2,3-dihydro-1H-inden-1-yl)oxy)acetyl)-3,8-diazabicyclo[3.2.1]octan-8-yl)nicotinonitrile], which IC50 is on record?
Its IC50 is 10 to 100 nM.

`N#Cc1ccc(N2C3CCC2CN(C(=O)COC2CCc4cc(F)ccc42)C3)nc1` (racemic) [Example 184, 6-(3-(2-((5-fluoro-2,3-dihydro-1H-inden-1-yl)oxy)acetyl)-3,8-diazabicyclo[3.2.1]octan-8-yl)nicotinonitrile] was tested. Which IC50 did it give?
The IC50 was 10 to 100 nM.

For `CC(OCC(=O)N1CC2CCC(C1)N2c1ccc(C#N)cn1)c1ccc(C(F)(F)F)nc1` (racemic) [Example 190, 6-(3-(2-(1-(6-(trifluoromethyl)pyridin-3-yl)ethoxy)acetyl)-3,8-diazabicyclo[3.2.1]octan-8-yl)nicotinonitrile], which IC50 is on record?
The IC50 was > 1000 nM.

How did the IC50 turn out when `CC(OCC(=O)N1CC2CCC(C1)N2c1ccc(C#N)cn1)c1cccc2ncnn12` (racemic) [Example 191, 6-(3-(2-(1-([1,2,4]triazolo[1,5-a]pyridin-5-yl)ethoxy)acetyl)-3,8-diazabicyclo[3.2.1]octan-8-yl)nicotinonitrile] was run?
The IC50 was 10 to 100 nM.

How did the IC50 turn out when `CC(OCC(=O)N1CC2CCC(C1)N2c1ccc(C#N)cn1)c1cccc2ncccc12` (racemic) [Example 192, 6-(3-(2-(1-(quinolin-5-yl)ethoxy)acetyl)-3,8-diazabicyclo[3.2.1]octan-8-yl)nicotinonitrile] was run?
The IC50 was < 10 nM.

`CC(OCC(=O)N1CC2CCC(C1)N2c1ccc(C#N)cn1)c1cccc2nccnc12` (racemic) [Example 193, 6-(3-(2-(1-(quinoxalin-5-yl)ethoxy)acetyl)-3,8-diazabicyclo[3.2.1]octan-8-yl)nicotinonitrile] was tested. Which IC50 did it give?
Its IC50 is < 10 nM.

`N#Cc1ccc(N2C3CCC2CN(C(=O)COC(c2ccc(F)c(F)c2)C2CC2)C3)nc1` (racemic) [Example 194, 6-(3-(2-(cyclopropyl(3,4-difluorophenyl)methoxy)acetyl)-3,8-diazabicyclo[3.2.1]octan-8-yl)nicotinonitrile] was tested. Which IC50 did it give?
The IC50 was 100 to 1000 nM.

How did the IC50 turn out when `N#Cc1ccc(N2C3CCC2CN(C(=O)COC(c2cccc4ncnn24)C2CC2)C3)nc1` (racemic) [Example 195, 6-(3-(2-([1,2,4]triazolo[1,5-a]pyridin-5-yl(cyclopropyl)methoxy)acetyl)-3,8-diazabicyclo[3.2.1]octan-8-yl)nicotinonitrile] was run?
The IC50 was 10 to 100 nM.

`CC(OCC(=O)N1CC2CCC(C1)N2c1ccc(C#N)cn1)c1cccn2ncnc12` (racemic) [Example 196, 6-(3-(2-(1-([1,2,4]triazolo[1,5-a]pyridin-8-yl)ethoxy)acetyl)-3,8-diazabicyclo[3.2.1]octan-8-yl)nicotinonitrile] was tested. Which IC50 did it give?
Its IC50 is < 10 nM.

For `Cc1noc(C)c1C(C)OCC(=O)N1CC2CCC(C1)N2c1ccc(C#N)cn1` (racemic) [Example 197, 6-(3-(2-(1-(3,5-dimethylisoxazol-4-yl)ethoxy)acetyl)-3,8-diazabicyclo[3.2.1]octan-8-yl)nicotinonitrile], which IC50 is on record?
The IC50 was < 10 nM.

`Cc1nn(C)c(C)c1C(C)OCC(=O)N1CC2CCC(C1)N2c1ccc(C#N)cn1` (racemic) [Example 198, 6-(3-(2-(1-(1,3,5-trimethyl-1H-pyrazol-4-yl)ethoxy)acetyl)-3,8-diazabicyclo[3.2.1]octan-8-yl)nicotinonitrile] was tested. Which IC50 did it give?
Its IC50 is 10 to 100 nM.

For `N#Cc1ccc(N2C3CCC2CN(C(=O)COC(c2cccc4ncccc24)C(F)F)C3)nc1` (racemic) [Example 199, 6-(3-(2-(2,2-difluoro-1-(quinolin-5-yl)ethoxy)acetyl)-3,8-diazabicyclo[3.2.1]octan-8-yl)nicotinonitrile], which IC50 is on record?
The IC50 was < 10 nM.

`N#Cc1ccc(N2C3CCC2CN(C(=O)COC(c2ccc(F)cc2)C(F)F)C3)nc1` (racemic) [Example 200, 6-(3-(2-(2,2-difluoro-1-(4-fluorophenyl)ethoxy)acetyl)-3,8-diazabicyclo[3.2.1]octan-8-yl)nicotinonitrile] was tested. Which IC50 did it give?
Its IC50 is 10 to 100 nM.
